The source of these data is ChEMBL document CHEMBL1909046, “DrugMatrix in vitro pharmacology data”.

Assay [1] can be described thus: DRUGMATRIX: ATPase, Na+/K+ enzyme inhibition (substrate: ATP). It counts as tissue-based, Sus scrofa, Heart. The following applies: Not Active = under 50% inhibition at 10 µM.
Assay [2] deals with T1, Glucocorticoid receptor (Homo sapiens, UniProt P04150).
T1 sequence (P04150 whole entry): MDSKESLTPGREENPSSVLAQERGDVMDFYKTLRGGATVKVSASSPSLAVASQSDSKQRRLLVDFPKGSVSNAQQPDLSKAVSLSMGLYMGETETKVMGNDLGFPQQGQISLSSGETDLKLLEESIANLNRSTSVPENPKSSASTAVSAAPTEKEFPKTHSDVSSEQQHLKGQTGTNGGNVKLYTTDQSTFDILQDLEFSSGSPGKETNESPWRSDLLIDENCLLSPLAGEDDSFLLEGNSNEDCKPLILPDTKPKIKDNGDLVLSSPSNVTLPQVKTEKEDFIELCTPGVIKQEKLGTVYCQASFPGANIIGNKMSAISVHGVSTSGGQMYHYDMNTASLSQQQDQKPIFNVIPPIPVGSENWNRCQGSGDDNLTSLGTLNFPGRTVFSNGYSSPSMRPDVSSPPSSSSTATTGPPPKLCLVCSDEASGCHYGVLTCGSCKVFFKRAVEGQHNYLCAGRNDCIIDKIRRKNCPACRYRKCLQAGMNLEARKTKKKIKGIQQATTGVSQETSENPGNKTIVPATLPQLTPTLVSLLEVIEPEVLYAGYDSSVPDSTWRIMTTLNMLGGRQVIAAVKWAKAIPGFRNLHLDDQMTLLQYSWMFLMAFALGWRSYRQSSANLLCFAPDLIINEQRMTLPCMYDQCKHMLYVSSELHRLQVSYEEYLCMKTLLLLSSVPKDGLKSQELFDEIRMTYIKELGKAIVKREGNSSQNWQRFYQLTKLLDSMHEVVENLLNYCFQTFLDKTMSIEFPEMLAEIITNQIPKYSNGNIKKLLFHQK
As to conditions: hela s3.

In assay [3] the target is T2, Amine oxidase [flavin-containing] A (Homo sapiens, UniProt P21397).
T2 sequence (P21397 whole entry): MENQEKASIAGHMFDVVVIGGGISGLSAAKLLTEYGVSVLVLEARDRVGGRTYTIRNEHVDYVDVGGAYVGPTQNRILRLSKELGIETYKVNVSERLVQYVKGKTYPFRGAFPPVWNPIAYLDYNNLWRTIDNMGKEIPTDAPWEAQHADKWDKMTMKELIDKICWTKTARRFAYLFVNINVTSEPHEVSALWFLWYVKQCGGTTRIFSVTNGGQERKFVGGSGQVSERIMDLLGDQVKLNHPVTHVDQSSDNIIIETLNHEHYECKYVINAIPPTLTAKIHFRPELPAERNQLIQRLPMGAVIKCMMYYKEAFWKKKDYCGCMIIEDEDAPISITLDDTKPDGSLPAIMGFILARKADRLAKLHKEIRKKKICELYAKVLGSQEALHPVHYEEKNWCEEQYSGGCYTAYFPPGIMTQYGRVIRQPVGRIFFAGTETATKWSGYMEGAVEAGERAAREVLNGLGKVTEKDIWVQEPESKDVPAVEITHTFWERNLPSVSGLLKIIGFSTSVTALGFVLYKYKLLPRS
As to the kind of experiment: DRUGMATRIX: Monoamine Oxidase MAO-A enzyme inhibition (substrate: Kynuramine). On the set-up: species or system BTI-TN-5B1-4. The following applies: bti-tn-5b1-4; Not Active = under 50% inhibition at 10 µM.

Assay [4] in a line: DRUGMATRIX: Leukotriene, BLT (LTB4) radioligand binding (ligand: [3H]LTB4). The assay is classed as cell membranes, Membrane. The following applies: u-937; Not Active = under 50% inhibition at 10 µM.
Assay [5] can be described thus: DRUGMATRIX: Interleukin IL-1 radioligand binding (ligand: [125I] interleukin 1beta). The following applies: nih3t3; Not Active = under 50% inhibition at 10 µM. The assay is classed as cell membranes, Membrane.
Assay [6] addresses T3, C-X-C chemokine receptor type 2 (Homo sapiens, UniProt P25025).
T3 sequence (P25025 whole entry): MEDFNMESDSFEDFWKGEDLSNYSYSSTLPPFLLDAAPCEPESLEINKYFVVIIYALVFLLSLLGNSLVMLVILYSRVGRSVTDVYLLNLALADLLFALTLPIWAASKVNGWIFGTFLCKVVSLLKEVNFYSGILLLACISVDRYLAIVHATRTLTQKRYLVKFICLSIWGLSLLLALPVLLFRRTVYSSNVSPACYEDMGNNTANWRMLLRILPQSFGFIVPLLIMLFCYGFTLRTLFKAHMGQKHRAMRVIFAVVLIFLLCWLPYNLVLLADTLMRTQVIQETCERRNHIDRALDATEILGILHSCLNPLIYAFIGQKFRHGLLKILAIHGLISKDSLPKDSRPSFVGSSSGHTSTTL
It counts as cell membranes, Membrane. As to conditions: cho-k1.

The nature of assay [7]: DRUGMATRIX: Phosphodiesterase PDE3 enzyme inhibition (substrate: [3H]cAMP + cAMP). It counts as tissue-based, Homo sapiens. As to conditions: platelet; Not Active = under 50% inhibition at 10 µM.
A short description of assay [8]: DRUGMATRIX: Phosphodiesterase PDE4 enzyme inhibition (substrate: [3H]cAMP + cAMP). As to conditions: u-937, Not Active = under 50% inhibition at 10 µM.
Assay [9] deals with Substance-P receptor (Homo sapiens, UniProt P25103). It counts as cell membranes, CHO, Membrane. The following applies: cho.
Sequence of Substance-P receptor (P25103 whole entry): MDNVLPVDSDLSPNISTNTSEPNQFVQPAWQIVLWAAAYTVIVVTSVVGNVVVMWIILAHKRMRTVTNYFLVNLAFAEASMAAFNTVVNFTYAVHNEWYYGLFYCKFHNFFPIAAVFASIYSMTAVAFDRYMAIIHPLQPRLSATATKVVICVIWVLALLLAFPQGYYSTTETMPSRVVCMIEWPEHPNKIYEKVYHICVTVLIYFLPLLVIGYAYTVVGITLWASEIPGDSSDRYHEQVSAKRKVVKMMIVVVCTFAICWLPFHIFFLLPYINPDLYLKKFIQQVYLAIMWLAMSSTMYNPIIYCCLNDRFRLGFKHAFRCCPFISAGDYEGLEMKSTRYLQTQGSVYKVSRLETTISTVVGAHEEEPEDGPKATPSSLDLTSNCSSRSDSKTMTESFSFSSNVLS
Assay [10] has as its target Delta-type opioid receptor (Homo sapiens, UniProt P41143). The assay is classed as cell membranes, HEK293, Membrane. The following applies: hek293. Also: in other assays of this panel Not Active means under 50% inhibition at 10 µM.
In assay [11] the target is Kappa-type opioid receptor (Homo sapiens, UniProt P41145). As to the kind of experiment: DRUGMATRIX: Opiate kappa (OP2, KOP) radioligand binding (ligand: [3H] Diprenorphine). The assay is classed as cell membranes, HEK293, Membrane. As to conditions: hek293; Not Active = under 50% inhibition at 10 µM.
Sequence of Kappa-type opioid receptor (P41145 whole entry): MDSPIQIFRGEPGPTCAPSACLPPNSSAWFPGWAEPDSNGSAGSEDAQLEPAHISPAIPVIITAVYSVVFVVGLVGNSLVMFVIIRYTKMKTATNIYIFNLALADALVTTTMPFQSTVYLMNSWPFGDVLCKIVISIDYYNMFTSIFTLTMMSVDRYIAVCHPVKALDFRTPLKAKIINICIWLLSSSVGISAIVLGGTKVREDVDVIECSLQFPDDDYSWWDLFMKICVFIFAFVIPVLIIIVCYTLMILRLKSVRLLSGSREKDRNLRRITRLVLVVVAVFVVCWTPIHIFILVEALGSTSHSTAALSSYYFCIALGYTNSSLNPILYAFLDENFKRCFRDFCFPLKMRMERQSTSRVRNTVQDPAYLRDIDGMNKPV
The nature of assay [12]: DRUGMATRIX: Calcium Channel Type L, Dihydropyridine radioligand binding (ligand: [3H] Nitrendipine). The assay is classed as cell membranes, Rattus norvegicus, Wistar, Cerebral cortex, Membrane. The following applies: Not Active = under 50% inhibition at 10 µM.
Assay [13] has as its target Adenosine receptor A2a (Homo sapiens, UniProt P29274). As to the kind of experiment: DRUGMATRIX: Adenosine A2A radioligand binding (ligand: […]). It counts as cell membranes, HEK293, Membrane. As to conditions: hek293; Not Active = under 50% inhibition at 10 µM.

pIC50: −log10 of the molar value.

Sequence of Delta-type opioid receptor (P41143 whole entry): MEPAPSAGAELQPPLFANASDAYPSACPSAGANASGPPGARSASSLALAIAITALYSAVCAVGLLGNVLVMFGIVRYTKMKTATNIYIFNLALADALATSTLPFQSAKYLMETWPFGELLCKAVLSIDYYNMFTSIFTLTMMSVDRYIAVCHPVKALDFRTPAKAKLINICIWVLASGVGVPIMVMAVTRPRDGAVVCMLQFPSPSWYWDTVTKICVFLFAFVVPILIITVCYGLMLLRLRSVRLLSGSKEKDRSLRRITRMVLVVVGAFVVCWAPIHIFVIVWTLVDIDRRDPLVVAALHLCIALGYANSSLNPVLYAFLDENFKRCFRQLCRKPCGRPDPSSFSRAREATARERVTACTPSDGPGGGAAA
Sequence of Adenosine receptor A2a (P29274 whole entry): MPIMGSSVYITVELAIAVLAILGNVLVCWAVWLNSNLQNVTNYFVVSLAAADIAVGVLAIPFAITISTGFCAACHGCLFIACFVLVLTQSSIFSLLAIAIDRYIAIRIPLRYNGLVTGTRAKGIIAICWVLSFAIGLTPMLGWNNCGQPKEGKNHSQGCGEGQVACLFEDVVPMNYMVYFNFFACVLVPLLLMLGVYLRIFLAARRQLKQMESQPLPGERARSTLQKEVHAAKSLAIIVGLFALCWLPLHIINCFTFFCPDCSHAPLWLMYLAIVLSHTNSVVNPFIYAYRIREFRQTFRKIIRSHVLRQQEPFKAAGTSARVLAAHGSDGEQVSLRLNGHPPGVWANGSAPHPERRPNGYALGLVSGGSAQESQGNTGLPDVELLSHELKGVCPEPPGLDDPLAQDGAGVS

For the molecule `CC=CC(=O)N(CC)c1ccccc1C`, the IC50 entry in assay [1], in assay [2], in [3], in [4], in assay [5] and in [6] was “Not Active” throughout. Besides, the IC50 result in assay [7], in assay [8], in assay [9], in assay [10], in [11] and in assay [12] was “Not Active” throughout. Besides, the IC50 result in assay [13] is recorded as “Not Active”. Moreover, the Ki result in [1], in assay [4], in [5], in assay [7], in assay [8] and in assay [12] was “Not Active” throughout.

On to `C=C1C(=O)O[C@@H]2C3O[C@]3(C)CC/C=C(\C)CC[C@@H]12` (stereo partly drawn), for which the IC50 entry in assay [1], in assay [2], in [3], in assay [4], in [5] and in assay [6] was “Not Active” in each case. Besides, the IC50 entry in assay [7], in assay [8], in assay [9], in assay [10], in assay [11] and in [12] was “Not Active” throughout. Besides, in [13], the IC50 result is reported as “Not Active”. The Ki result in assay [1], in [4], in [5], in assay [7], in assay [8] and in assay [12] was “Not Active” in each case.

Consider `COc1ccc2c(c1)c(CC(=O)OCC(=O)O)c(C)n2C(=O)c1ccc(Cl)cc1` [ACEMETACIN], for which the IC50 result in assay [1], in [2], in assay [3], in assay [4], in assay [5] and in assay [6] was “Not Active” throughout. Besides, the IC50 result in assay [7], in assay [8], in [9], in [10], in assay [11] and in [12] was “Not Active” in each case. For the same molecule, the IC50 entry in assay [13] is given as “Not Active”. Besides, the Ki entry in assay [1], in assay [4], in assay [5], in [7], in assay [8] and in [12] was “Not Active” in each case.

With `CCCSc1ccc2nc(NC(=O)OC)[nH]c2c1` [ALBENDAZOLE], the IC50 entry in assay [1], in [2], in [3], in assay [4], in assay [5] and in [6] was “Not Active” each time. For the same molecule, the IC50 entry in [7], in assay [8], in [9], in assay [10], in assay [11] and in assay [12] was “Not Active” in each case. The IC50 result in [13] is listed as “Not Active”. The Ki entry in [1], in [4], in [5], in [7], in assay [8] and in [12] was “Not Active” in each case.

Take `O=c1cc(-c2ccccc2)oc2c1ccc1ccccc12` [ALPHA-NAPHTHOFLAVONE]: the IC50 entry in assay [1], in assay [2], in [3], in assay [4], in assay [5] and in assay [6] was “Not Active” each time. The IC50 entry in [7], in assay [9], in [10], in assay [11], in assay [12] and in assay [13] was “Not Active” each time. The Ki result in assay [1], in assay [4], in [5], in assay [7] and in assay [12] was “Not Active” throughout. Besides, the pIC50 in [8] (read-out: IC50) was 5.53.

Turning to `NCC[C@H](O)C(=O)N[C@@H]1C[C@H](N)[C@@H](O[C@H]2O[C@H](CN)[C@@H](O)[C@H](O)[C@H]2O)[C@H](O)[C@H]1O[C@H]1O[C@H](CO)[C@@H](O)[C@H](N)[C@H]1O` [AMIKACIN], the IC50 entry in [1], in assay [2], in [3], in [4], in [5] and in assay [6] was “Not Active” throughout. The IC50 entry in assay [7], in assay [8], in assay [9], in assay [10], in assay [11] and in [12] was “Not Active” each time. Moreover, in assay [13], the IC50 result is “Not Active”. Moreover, the Ki entry in assay [1], in assay [4], in assay [5], in assay [7], in [8] and in assay [12] was “Not Active” throughout.
